{"source": "patent US11241442B2", "about": "“Methods of use for TRP channel antagonist-based combination cancer therapies” (President and Fellows of Harvard College, priority 2017, dated 2022)", "type_in_all_cases": "cell-based", "key": {"EL-12-58 cells": {"test_system": "EL-12-58 cells", "experiment": "Live cell number and cell death under H2O2 in EL-12-58 cells", "settings": "10 μM AP-18; H2O2 for 72 h", "description": "(§1) For the measurements of live cell number and cell death under treatment with H2O2, diamide, or chemotherapies, cells were cultured on 96-well plates in the presence or absence of these drugs for indicated times and stained with 5 μM bisBenzimide H 33342 trihydrochloride (Hoechst; Sigma) and 5 μM propidium iodide (PI; Sigma) for 1 h at 37° C. Hoechst- and/or PI-positive cells were counted using a laser scanning cytometer, Acumen Cellista (TTPLabTech). Apoptotic cells induced by H2O2 treatment were measured by staining with Annexin V-Alexa Fluor® 488 conjugate (Life Technologies) and PI in Ca^2+-containing solution (10 mM HEPES pH 7.4, 140 mM NaCl; 2.5 mM CaCl2), followed by flow cytometric measurement of fluorescence using a FACSCalibur. Flow cytometry plots are representative of three independent experiments. […] Viable cells were counted using the Countless Automated Cell Counters (Thermo Fisher Scientific). […] Hoechst- and/or PI-positive areas were measured using Acumen Cellista. Apoptotic cells induced by detachment were measured by staining with 5 μM Hoechst and 5 μM of CellEvent™ Caspase-3/7 Green Detection Reagent (Thermo Fisher Scientific) for 1 h at 37° C. without enzymatic dissociation of cell clumps. Hoechst- and/or CellEvent™ Caspase-3/7 Green Detection Reagent-positive areas were measured using Acumen Cellista. […]"}, "TRPA1 [1]": {"test_system": "TRPA1", "T1 sequence (O75762 682-1119 limits assumed)": "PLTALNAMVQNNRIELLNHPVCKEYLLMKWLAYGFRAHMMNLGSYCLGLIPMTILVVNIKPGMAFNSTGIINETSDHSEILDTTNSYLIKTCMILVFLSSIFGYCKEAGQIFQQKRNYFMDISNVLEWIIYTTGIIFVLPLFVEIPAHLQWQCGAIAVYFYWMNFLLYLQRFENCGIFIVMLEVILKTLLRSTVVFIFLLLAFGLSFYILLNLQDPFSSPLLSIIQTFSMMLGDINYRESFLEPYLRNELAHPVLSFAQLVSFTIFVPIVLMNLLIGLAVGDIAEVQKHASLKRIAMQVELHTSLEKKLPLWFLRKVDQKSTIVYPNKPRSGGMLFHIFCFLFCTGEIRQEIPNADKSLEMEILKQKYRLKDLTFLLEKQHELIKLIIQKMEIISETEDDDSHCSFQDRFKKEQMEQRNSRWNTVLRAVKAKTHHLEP", "experiment": "[Ca2+]i by fura-2 in TRPA1-expressing MCF-10A 3D acini", "settings": "inner ECM-deprived region of MCF-10A acini", "description": "(§2) For the measurement of [Ca^2+]i levels in cells cultured in 2D or 3D (in Matrigel), cells were stained with 3.5 μM fura-2-AM (Life Technology) in the presence of 2.5 mM probenecid (Sigma) and 0.02% Pluronic F-127 (Sigma) for 45 min at 37° C. The fura-2 fluorescence was measured in HBS solution containing 1.25 mM probenecid at 37° C. Fluorescence images of the cells were acquired through the Eclipse Ti-E microscope with ORCA-R2 cooled CCD camera and analyzed with Metafluor. The 340:380-nm ratio images were obtained on a pixel-by-pixel basis and were converted to Ca^2+ concentrations by in vivo calibration using 5 μM ionomycin as described previously (Nishida et al., Biochem. Biophys. Res. Commun., 262:350-354, 1999). 3D images are shown as one section from midstructure. For the measurement of [Ca^2+]i levels in cells cultured in suspension, cell clumps were dissociated with trypsin and [Ca^2+]i levels were determined by using Fluo-4 NW Calcium Assay Kit (Molecular Probes). Cells were stained with Fluo-4 according to the manufacturer's instructions and subjected to flow cytometric analysis (FACSCalibur) using HBS as sheath fluid. [Ca^2+]i levels determined by flow cytometry are reported as mean fluorescence intensity expressed in arbitrary units. Time courses of [Ca^2+]i rises in 2D culture are representative of three independent experiments and averaged Δ[Ca^2+]i represents mean±SEM from the sum of three independent experiments. Fura-2 ratio images in 3D culture are representative of two independent experiments and averaged [Ca^2+]i in 3D culture represents mean±SEM from the sum of two independent experiments."}, "HCC1569 cells": {"test_system": "HCC1569 cells", "experiment": "Soft agar anchorage-independent growth of HCC1569 cells", "description": "Cells were added to the regular MCF-10A or HCC1569 growth media (±AP-18, A-967079, or Trolox) plus 0.4% low-melt agarose (Sigma) and layered onto a bed of growth media plus 0.5% low-melt agarose. Cells were fed every 4 days with growth media (±AP-18, A-967079, or Trolox) plus 0.4% low-melt agarose. At the indicated times, viable colonies were stained with iodonitrotetrazolium chloride (Sigma). Colony number and colony size were determined using ImageJ. Images shown are representative of at least three independent experiments."}, "HCC1500": {"test_system": "HCC1500", "experiment": "Live cell number under carboplatin in HCC1500 cells", "settings": "10 μM AP-18; carboplatin 72 h; HCC1500, very low TRPA1", "description": "as §1"}, "TRPA1 [2]": {"molecular_target": "T1, TRPA1 (Homo sapiens, UniProt O75762)", "T1 construct": "endogenous in cells; host or cells: HCC1569 breast cancer cells (2D culture or 3D spheroids; shGFP or shTRPA1 transduced)", "experiment": "[Ca2+]i by fura-2 in HCC1569 spheroids", "settings": "AP-18, 300 nM A-967079 or 5 mM NAC", "description": "as §2"}, "TRPA1 [3]": {"molecular_target": "T1, TRPA1", "experiment": "Ca2+ responses to carboplatin in HCC1569 cells", "settings": "10 μM AP-18 or 300 nM A-967079", "description": "as §2"}, "TRPA1 [4]": {"molecular_target": "T1, TRPA1", "experiment": "AITC-evoked [Ca2+]i rises in TRPA1-enriched MPNST cells", "settings": "10 μM AP-18, 30 μM AITC", "description": "as §2, with “Time courses of [Ca^2+]i rises in 2D culture are representative of three independent experiments and averaged Δ[Ca^2+]i represents mean±SEM from the sum of three independent experiments. Fura-2 ratio images in 3D culture are representative of two independent experiments and averaged [Ca^2+]i in 3D culture represents mean±SEM from the sum of two independent experiments.” left out"}}, "data": [{"substance": "AP-18", "values": [{"measurement": "sensitization to H2O2 cytotoxicity", "setting": "EL-12-58 cells", "value": "sensitized"}, {"measurement": "TRPA1- or E681K-induced [Ca2+]i rises", "setting": "TRPA1 [1]", "value": "abolished"}, {"measurement": "anchorage-independent growth (number and average size of colonies)", "setting": "HCC1569 cells", "value": "impaired"}, {"measurement": "sensitization to carboplatin", "setting": "HCC1500", "value": "minimal to no effect"}, {"measurement": "elevated [Ca2+]i of inner cells of spheroids", "setting": "TRPA1 [2]", "value": "suppressed"}, {"measurement": "[Ca2+]i rises upon carboplatin treatment", "setting": "TRPA1 [3]", "value": "significantly suppressed"}, {"measurement": "oscillatory Ca2+ responses upon carboplatin treatment", "setting": "TRPA1 [3]", "value": "significantly suppressed"}, {"measurement": "inhibition of AITC-induced [Ca2+]i rises", "setting": "TRPA1 [4]", "value": "abolished"}]}]}
